Measured values published in article PMC5545217 (Nature Communications, 2017).
Entries after “also recorded” stand apart in the source; their conditions may differ.

Target: D216V ATP-PRT (Mycobacterium tuberculosis, UniProt P9WMN1, D216V)
Type: biochemical

| SMILES | Inhibition of D216V ATP-PRT | Activation of D216V ATP-PRT |
| --- | --- | --- |
| N[C@@H](Cc1c[nH]cn1)C(=O)O [L-His, L-histidine, reference compound] | no longer inhibited by L-His; also recorded: did not change D216 V activity | – |
| N[C@@H](Cc1cccs1)C(=O)O [TIH, 3-(2-thienyl)-L-alanine] | – | still activated by TIH |
